The source made the active and inactive calls. The rule behind the calls is not given here.
Assays:
[1] = system: Rhynchophorus ferrugineus; assay: Contact toxicity against Rhynchophorus ferrugineus (red palm weevil) adults assessed as time required for 100% reversible knockdown at 3.5 ml/l for 5 min; format: functional
[2] = system: Rhynchophorus ferrugineus; assay: Pesticidal activity against Rhynchophorus ferrugineus (red palm weevil) larvae assessed as mortality at 100 ppm administered topically at 72 hr post-treatment; format: functional
[3] = system: Rhynchophorus ferrugineus; assay: Pesticidal activity against Rhynchophorus ferrugineus (red palm weevil) larvae assessed as mortality at 100 ppm administered topically at 18 hr post-treatment; format: functional
[4] = system: Rhynchophorus ferrugineus; assay: Pesticidal activity against Rhynchophorus ferrugineus (red palm weevil) cocoon assessed as mortality at 0.5 ppm administered by dipping for 3 min measured at 24 hr post-treatment relative to control; format: functional
[5] = system: Rhynchophorus ferrugineus; assay: Contact toxicity against Rhynchophorus ferrugineus (red palm weevil) adults assessed as time required for 100% reversible knockdown at 2.5 ml/l for 5 min; format: functional
[6] = system: Rhynchophorus ferrugineus; assay: Pesticidal activity Rhynchophorus ferrugineus (red palm weevil) larvae assessed as time required after hatching for 100% mortality at 1.5 ml/l administered topically measured up to 14 days relative to control; format: functional
[7] = system: Rhynchophorus ferrugineus; assay: Contact toxicity against Rhynchophorus ferrugineus (red palm weevil) adults assessed as time required for 100% mortality at 2.5 ml/l for 5 min; format: functional
[8] = system: Rhynchophorus ferrugineus; assay: Pesticidal activity against adult Rhynchophorus ferrugineus (red palm weevil) assessed as mortality at 2 ppm, po at 48 hr post-treatment relative to control; format: functional
[9] = system: Rhynchophorus ferrugineus; assay: Pesticidal activity against Rhynchophorus ferrugineus (red palm weevil) larvae assessed as mortality at 2 ppm, po at 18 hr post-treatment relative to control; format: functional
[10] = system: Rhynchophorus ferrugineus; assay: Pesticidal activity against Rhynchophorus ferrugineus (red palm weevil) cocoons assessed as time required for total mortality at 2.5 ml/l administered by dipping for 30 secs; format: functional
[11] = system: Rhynchophorus ferrugineus; assay: Pesticidal activity against Rhynchophorus ferrugineus (red palm weevil) larvae infested date palm tree assessed as non-feeding status of collected live stage larvae at 20 ml/4l of water applied through soil-drench irrigation measured after 3 weeks relative to control; format: functional, organism-based
[12] = system: Rhynchophorus ferrugineus; assay: Pesticidal activity against adult Rhynchophorus ferrugineus (red palm weevil) assessed as mortality at 300 ppm administered topically at 72 hr post-treatment; format: functional
[13] = system: Rhynchophorus ferrugineus; assay: Pesticidal activity against Rhynchophorus ferrugineus (red palm weevil) larvae assessed as mortality at 1 ppm, po at 18 hr post-treatment relative to control; format: functional
[14] = system: Rhynchophorus ferrugineus; assay: Pesticidal activity against adult Rhynchophorus ferrugineus (red palm weevil) assessed as mortality at 1.5 ppm, po at 114 hr post-treatment relative to control; format: functional
[15] = system: Rhynchophorus ferrugineus; assay: Pesticidal activity against Rhynchophorus ferrugineus (red palm weevil) cocoon assessed as mortality at 20 ppm administered by dipping for 3 min measured at 90 hr post-treatment relative to control; format: functional
[16] = system: Rhynchophorus ferrugineus; assay: Pesticidal activity against Rhynchophorus ferrugineus (red palm weevil) larvae assessed as mortality at 2 ppm, po at 90 hr post-treatment relative to control; format: functional
[17] = system: Rhynchophorus ferrugineus; assay: Pesticidal activity Rhynchophorus ferrugineus (red palm weevil) larvae assessed as time required after hatching for 100% mortality at 3.5 ml/l administered topically measured up to 14 days relative to control; format: functional
[18] = system: Rhynchophorus ferrugineus; assay: Pesticidal activity against Rhynchophorus ferrugineus (red palm weevil) larvae assessed as mortality at 1 ppm, po at 24 hr post-treatment relative to control; format: functional
[19] = system: Rhynchophorus ferrugineus; assay: Pesticidal activity against adult Rhynchophorus ferrugineus (red palm weevil) assessed as mortality at 300 ppm administered topically at 48 hr post-treatment; format: functional
[20] = system: Rhynchophorus ferrugineus; assay: Pesticidal activity against Rhynchophorus ferrugineus (red palm weevil) larvae assessed as mortality at 2 ppm, po at 114 hr post-treatment relative to control; format: functional
[21] = system: Rhynchophorus ferrugineus; assay: Pesticidal activity against Rhynchophorus ferrugineus (red palm weevil) larvae infested date palm tree assessed as reduction in mandibles movement of collected live stage larvae at 20 ml/4l of water applied through soil-drench irrigation measured after 3 weeks relative to control; format: functional, organism-based
[22] = system: Rhynchophorus ferrugineus; assay: Contact toxicity against Rhynchophorus ferrugineus (red palm weevil) adults assessed as time required for 100% reversible knockdown at 1.5 ml/l for 2 min; format: functional
[23] = system: Rhynchophorus ferrugineus; assay: Pesticidal activity against adult Rhynchophorus ferrugineus (red palm weevil) assessed as mortality at 1.5 ppm, po at 48 hr post-treatment relative to control; format: functional
[24] = system: Rhynchophorus ferrugineus; assay: Pesticidal activity against Rhynchophorus ferrugineus (red palm weevil) larvae infested date palm trees assessed as mortality at 2.5 ml/l applied through soil-drench irrigation 1 week after infestation measured on day 30 post-treatment relative to control; format: functional
[25] = system: Rhynchophorus ferrugineus; assay: Pesticidal activity against Rhynchophorus ferrugineus (red palm weevil) larvae infested date palm trees assessed as mortality at 2.5 ml/l applied through soil-drench irrigation 1 week after infestation measured on day 20 post-treatment relative to control; format: functional
[26] = system: Rhynchophorus ferrugineus; assay: Pesticidal activity against Rhynchophorus ferrugineus (red palm weevil) larvae infested date palm tree assessed as mortality of collected live stage at 20 ml/4l of water applied through soil-drench irrigation measured at 3 weeks post-treatment within 48 hr after emergence relative to control; format: functional
[27] = system: Rhynchophorus ferrugineus; assay: Contact toxicity against Rhynchophorus ferrugineus (red palm weevil) adults assessed as time required for 100% reversible knockdown at 2.5 ml/l for 2 min; format: functional
[28] = system: Rhynchophorus ferrugineus; assay: Pesticidal activity against Rhynchophorus ferrugineus (red palm weevil) cocoon assessed as mortality at 1 ppm administered by dipping for 3 min measured at 48 hr post-treatment relative to control; format: functional
[29] = system: Rhynchophorus ferrugineus; assay: Pesticidal activity against Rhynchophorus ferrugineus (red palm weevil) cocoon assessed as mortality at 1 ppm administered by dipping for 3 min measured at 24 hr post-treatment relative to control; format: functional
[30] = system: Rhynchophorus ferrugineus; assay: Pesticidal activity against Rhynchophorus ferrugineus (red palm weevil) cocoons assessed as time required for total mortality at 2.5 ml/l administered by dipping for 5 secs; format: functional
[31] = system: Rhynchophorus ferrugineus; assay: Pesticidal activity against Rhynchophorus ferrugineus (red palm weevil) larvae assessed as mortality at 2 ppm, po at 24 hr post-treatment relative to control; format: functional
[32] = system: Rhynchophorus ferrugineus; assay: Contact toxicity against Rhynchophorus ferrugineus (red palm weevil) adults assessed as time required for 50% mortality at 1.5 ml/l for 2 min; format: functional
[33] = system: Rhynchophorus ferrugineus; assay: Pesticidal activity against Rhynchophorus ferrugineus (red palm weevil) larvae assessed as mortality at 1.5 ppm, po at 72 hr post-treatment relative to control; format: functional
[34] = system: Rhynchophorus ferrugineus; assay: Pesticidal activity against Rhynchophorus ferrugineus (red palm weevil) larvae assessed as mortality at 500 ppm administered topically at 72 hr post-treatment; format: functional
[35] = system: Rhynchophorus ferrugineus; assay: Pesticidal activity against Rhynchophorus ferrugineus (red palm weevil) cocoon assessed as mortality at 0.5 ppm administered by dipping for 3 min measured at 48 hr post-treatment relative to control; format: functional
[36] = system: Rhynchophorus ferrugineus; assay: Pesticidal activity against Rhynchophorus ferrugineus (red palm weevil) cocoon assessed as mortality at 4 ppm administered by dipping for 3 min measured at 18 hr post-treatment relative to control; format: functional
[37] = system: Rhynchophorus ferrugineus; assay: Pesticidal activity against Rhynchophorus ferrugineus (red palm weevil) larvae assessed as mortality at 1.5 ppm, po at 114 hr post-treatment relative to control; format: functional
[38] = system: Rhynchophorus ferrugineus; assay: Pesticidal activity against Rhynchophorus ferrugineus (red palm weevil) larvae assessed as mortality at 300 ppm administered topically at 72 hr post-treatment; format: functional
[39] = system: Rhynchophorus ferrugineus; assay: Pesticidal activity against adult Rhynchophorus ferrugineus (red palm weevil) assessed as mortality at 500 ppm administered topically at 48 hr post-treatment; format: functional
[40] = system: Rhynchophorus ferrugineus; assay: Pesticidal activity against Rhynchophorus ferrugineus (red palm weevil) larvae assessed as mortality at 6 ppm, po at 18 hr post-treatment relative to control; format: functional

Compound: O=[N+]([O-])/N=C1\NCCN1Cc1ccc(Cl)nc1 [IMIDACLOPRID]
- Time [1]: 2.1 days
- Activity [2]: 0%
- Activity [3]: 0%
- Activity [4]: 0%
- Time [5]: 2.2 days
- Time [6]: 6 days
- Time [7]: 7.2 days
- Activity [8]: 100%
- Activity [9]: 72.2%
- Time [10]: 9.2 days
- Activity [11]: Active
- Activity [12]: 100%
- Activity [13]: 0%
- Activity [14]: 100%
- Activity [15]: 72.2%
- Activity [16]: 100%
- Time [17]: 4 days
- Activity [18]: 0%
- Activity [19]: 72.2%
- Activity [20]: 100%
- Activity [21]: Active
- Time [22]: 9 days
- Activity [23]: 73.2%
- Activity [24]: 94.4%
- Activity [25]: 100%
- Activity [26]: 100%
- Time [27]: 7.1 days
- Activity [28]: 0%
- Activity [29]: 0%
- Time [30]: 9.5 days
- Activity [31]: 100%
- Time [32]: 10.1 days
- Activity [33]: 100%
- Activity [34]: 72.2%
- Activity [35]: 0%
- Activity [36]: 0%
- Activity [37]: 100%
- Activity [38]: 38.9%
- Activity [39]: 72.2%
- Activity [40]: 100%

Source: ChEMBL document CHEMBL3046274, “Toxicity of imidacloprid to developmental stages of Rhynchophorus ferrugineus (Curculionidae: Coleoptera): Laboratory and field tests” (Crop Prot, 2006)
